Columns and labels:
[1] = Solubilization curves (Sudan red, α-mangostin) to determine the minimum hydrotrope concentration; format: physicochemical; conditions: deduced from solubilization curves in aqueous solution
Experimental: The term “minimum hydrotrope concentration” refers to the concentration above which these non-ionic amphiphilic compounds begin to form aggregates, i.e., new microenvironments with physical properties different from those observed when the compound is diluted, and different from micellar behavior. This minimum hydrotrope concentration is specific to each non-ionic amphiphilic compound and generally has the order of magnitude of the molarity. It can be determined by several physicochemical methods, such as by measuring surface tension, conductivity or dynamic and static light scattering (Self-association of nicotinamide in aqueous solution: Light-scattering and vapor pressure osmometry studies (1996) 85(8): 848-853), or quite simply by establishing a solubilization curve of a lipophilic compound (solubilized solute content as a function of concentration of non-ionic amphiphilic compound). Sudan red, a lipophilic dye easily measured by spectrophotometry, can be used as reference. […]
The solubilization curves of Sudan red in aqueous solutions of various non-ionic amphiphilic compounds at different concentrations were prepared. After saturation of the solutions with Sudan red and filtration, the Sudan red content solubilized in each solution is measured after dilution by UV spectrophotometry at 476 nm. […]

[2] = Recovery of extracted α-mangostin by precipitation on dilution; format: physicochemical
Source text: The extract thus obtained may also be diluted in a volume of water optionally supplemented with one or more adjuvants selected from salts, acids or bases, so as to be at a final concentration of non-ionic amphiphilic compound below the sufficient concentration defined above. Thus, it is possible to recover the lipophilic compounds by precipitation and solid-liquid separation such as filtration or centrifugation.
At 7% amyl xyloside, 100% of the α-mangostin extracted precipitates.

| Molecule | MHC (minimum hydrotrope concentration) [1] | % of α-mangostin recovered by precipitation/α-mangostin extracted ([2]; extraction concentration 40%, concentration after dilution 7%) | % of α-mangostin recovered by precipitation/α-mangostin extracted ([2]; extraction concentration 40%, concentration after dilution 7%, listed as amyl xyloside) | % of α-mangostin recovered by precipitation/α-mangostin extracted ([2]; extraction concentration 40%, concentration after dilution 15%) | % of α-mangostin recovered by precipitation/α-mangostin extracted ([2]; extraction concentration 40%, concentration after dilution 15%, listed as amyl xyloside) | % of α-mangostin recovered by precipitation/α-mangostin extracted ([2]; extraction concentration 59%, concentration after dilution 24%) |
| --- | --- | --- | --- | --- | --- | --- |
| amyl xyloside | 5-10% | 100% | 100% | 12% | little α-mangostin precipitates | – |
| CC(C)(O)CCO [Isopentyldiol, 3-methyl-1,3-butanediol] | – | – | – | – | – | 66% |

From patent publication US10299502B2, “Method for producing an extract of a matrix of vegetable origin with a non-ionic amphiphilic compound as extraction adjuvant in an aqueous medium” (PIERRE FABRE DERMO-COSMETIQUE, priority 2015, dated 2019)
